This note sets out measurements from US20260285932A1, “PEPTIDE TYROSINE-TYROSINE ANALOG AND USE THEREOF” (THE UNITED BIO-TECHNOLOGY (HENGQIN) CO., LTD., priority 2023, published 2026).

For data set [1], the target named is T1, human Y5 receptor (hNPY5R) (Homo sapiens, UniProt Q15761).
T1 sequence (Q15761 1-445): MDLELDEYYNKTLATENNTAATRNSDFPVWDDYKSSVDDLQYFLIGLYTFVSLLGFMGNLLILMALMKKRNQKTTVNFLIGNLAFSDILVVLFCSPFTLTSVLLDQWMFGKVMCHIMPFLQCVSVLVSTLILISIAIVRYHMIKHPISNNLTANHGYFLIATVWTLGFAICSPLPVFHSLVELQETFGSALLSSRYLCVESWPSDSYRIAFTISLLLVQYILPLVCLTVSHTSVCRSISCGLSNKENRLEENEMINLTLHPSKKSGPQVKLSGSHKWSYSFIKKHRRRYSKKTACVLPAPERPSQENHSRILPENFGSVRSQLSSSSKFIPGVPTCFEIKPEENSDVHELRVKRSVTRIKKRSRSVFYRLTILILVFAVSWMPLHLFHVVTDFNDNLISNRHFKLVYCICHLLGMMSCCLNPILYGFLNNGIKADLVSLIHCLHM
As to the kind of experiment: calcium flux (FLIPR) assay, functional activity on human Y5 receptor. The settings on record: read-out: hNPY5R EC50, average, at least 3 independent tests. For orientation: Calcium assays in cells follow changes in intracellular calcium, usually with a dye or a luminescent sensor.
Method: (§3) 1) Preheated the culture medium, 1×DPBS and 0.05% trypsin EDTA in a 37° C. water bath for more than 30 minutes in advance, and ready for use.
(§4) 3) Cultured cells were taken out from the incubator, added with 1×DPBS, incubated for a moment, suctioned to remove DPBS, added with an appropriate amount of 0.05% trypsin-EDTA for cell digestion, digestion terminated with 10% FBS medium, and dispersed the cells.
(§5) 4) The dispersed cells were transferred into a 50 mL centrifuge tube using a pipette, centrifuged at 1000 rpm for 5 minutes, resuspended in culture medium, dispersed, and counted.
(§6) 5) The cells were diluted with culture medium to 1×10^6 cells/mL, and inoculated at a volume of 20 μL/well of cells onto 384-well poly-Lysine-coated cell plates.
(§7) 6) The cells were incubated overnight at 37° C. in an incubator with 5% CO2. […]
(§8) 4) The calcium ion activation rate was calculated for each well: % Activity=(signal value of sample well-average signal value of low-signal control well)/(average signal value of high-signal control well-average signal value of low-signal control well). Using the logarithm of the concentration of analogues as the horizontal axis and the activation rate of calcium ion fluorescence signal as the vertical axis, the “Nonlinear regression (curve fit)-log (antigen) vs. response Variable slope” model in GraphPad Prism 5.0 was used for fitting to calculate the EC50 of the sample.

Data set [2] addresses T2, recombinant human NPY2 receptor (Homo sapiens, UniProt P49146).
T2 construct: expressed in transfected cells; host or cells: HEK 293
T2 sequence (P49146 1-381): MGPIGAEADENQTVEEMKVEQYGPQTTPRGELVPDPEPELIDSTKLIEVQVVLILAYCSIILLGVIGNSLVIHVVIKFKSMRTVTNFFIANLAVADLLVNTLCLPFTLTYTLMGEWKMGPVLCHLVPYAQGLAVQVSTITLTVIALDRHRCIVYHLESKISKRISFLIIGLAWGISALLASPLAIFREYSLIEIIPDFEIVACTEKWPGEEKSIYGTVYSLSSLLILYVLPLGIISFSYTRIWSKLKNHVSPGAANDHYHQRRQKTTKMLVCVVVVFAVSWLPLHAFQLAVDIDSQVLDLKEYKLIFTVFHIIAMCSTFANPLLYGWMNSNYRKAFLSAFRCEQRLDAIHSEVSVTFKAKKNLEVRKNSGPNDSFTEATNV
The experiment in a line: cAMP assay, in vitro functional activity on NPY2 receptors. It is filed as cell-based. To be noted: inhibition of Forskolin-induced cAMP in HEK 293 cells overexpressing hNPY2R; average, at least 3 independent tests. How it is done:
2) Preparation of cells: the cultured cells were collected into a 15 mL sterile centrifuge tube, and centrifuged at 1000 rpm for 5 minutes, with the supernatant being discarded. 10 mL of 1×PBS was added, mixed gently, and centrifuged at 1000 rpm for 5 minutes, with the supernatant being discarded.
4) According to the arrangement order of Map analogues, 100 nL of prepared analogues were added to a 384-well cell reaction plate using Echo. After addition, they were centrifuged at 1000 rpm for 1 minute.
5) 5 μL of 2 μM Forskolin (prepared with detection buffer) was added to a 384-well cell reaction plate using Multidrop Combi and centrifuged at 1000 rpm for 1 minute. 5 μL of detection buffer containing cells was added to a 384-well reaction plate, ensuring a cell count of 3000 cells per well.
6) 10 μL cAMP detection reagent solution (1×cell lysis buffer 9.5 mL, 1×D2-cAMP solution, 1×cAMP-antibody) was added to the corresponding wells of the cell reaction plate using Multidrop Combi. It was covered with a lid and incubated at room temperature in the dark for 1 hour.
7) After incubation for 1 hour, it was placed in an EnVision microplate reader for measurement.

Data set [3] in a line: pharmacokinetics in crab-eating macaques. It is filed as in vivo. The settings on record: male crab-eating macaque, 0.246 mg/kg single s.c., plasma. As to the method: (§1) Blood samples were collected from each animal at each time point after administration, and the blood samples were centrifuged at around 4° C., 3200 g, for 10 minutes. Plasma was collected separately, transferred to pre-labeled 96-well plates or polypropylene tubes, speedily frozen on dry ice, and stored at −60° C. or lower until LC-MS/MS analysis.
(§2) LC-MS/MS method was adopted to determine the concentration of the measured analogues in blood samples. The data on the changes in plasma concentration over time were plotted into a chart and analyzed using non partitioned methods with Phoenix WinNonlin 6.3 software program. Relevant PK parameters were calculated based on the administration routes.
The plasma pharmacokinetics of PYY analogues in male crab-eating macaques were evaluated after a single subcutaneous administration of 0.246 mg/kg Analogue 3. Blood samples were collected from 2 crab-eating macaques at each time point after administration for 1 h, 2 h, 4 h, 8 h, 12 h, 24 h, 48 h, 72 h, 96 h, 120 h, 144 h, 168 h, 192 h, 240 h, 288 h, 336 h, 408 h, 504 h, extending to 504 hours. Due to the use of discontinuous sampling to evaluate the kinetics of PYY analogues in crab-eating macaques, the pharmacokinetic parameters of Analogue 3 after a single subcutaneous administration of 0.246 mg/kg were listed using average concentration-time data.

Data set [4] is described as follows: pharmacokinetics in SD rats. It is filed as in vivo. The settings on record: male rat, 0.492 mg/kg single s.c., plasma. How it is done:
as §1, §2
The plasma pharmacokinetics of PYY analogues in male SD rats were evaluated after a single subcutaneous administration of 0.492 mg/kg Analogue 3. Blood samples were collected from 3 rats at each time point after administration for 0.5 h, 1 h, 2 h, 4 h, 8 h, 12 h, 16 h, 24 h, 48 h, 72 h, 96 h, 120 h, 144 h, 168 h, extending to 168 h. Due to the use of discontinuous sampling to evaluate the kinetics of PYY analogues in rats, the pharmacokinetic parameters of Analogue 3 after a single subcutaneous administration of 0.492 mg/kg were listed using average concentration-time data.

Data set [5] addresses T3, human NPY1 receptor (hNPY1R) (Homo sapiens, UniProt P25929).
T3 construct: expressed in transfected cells
T3 sequence (P25929 1-384): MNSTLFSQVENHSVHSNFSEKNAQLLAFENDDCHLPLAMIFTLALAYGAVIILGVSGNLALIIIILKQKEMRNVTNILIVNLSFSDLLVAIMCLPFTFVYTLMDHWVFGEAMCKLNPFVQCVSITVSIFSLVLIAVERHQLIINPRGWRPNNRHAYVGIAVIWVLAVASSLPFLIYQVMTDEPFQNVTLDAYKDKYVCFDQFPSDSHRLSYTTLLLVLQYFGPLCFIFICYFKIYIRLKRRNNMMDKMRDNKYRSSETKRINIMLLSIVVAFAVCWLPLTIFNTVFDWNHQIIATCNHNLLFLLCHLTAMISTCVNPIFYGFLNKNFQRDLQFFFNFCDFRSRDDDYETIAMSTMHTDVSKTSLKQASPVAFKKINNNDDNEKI
As to the kind of experiment: calcium flux (FLIPR) assay, functional activity on human NPY1 receptor. It counts as cell-based. The settings on record: average, at least 3 independent tests.
Method: as §3, §4, §5, §6, §7, §8

A short description of data set [6]: food intake and body weight of normal mice after a single subcutaneous injection. It is filed as in vivo. The settings on record: C57BL/6 mice, over 3 days; for Body weight changes: vs baseline. How it is done:
6-8 weeks old male C57BL/6 mice were fed in animal feeding rooms with strictly controlled environmental conditions, the temperature in the feeding room was maintained at 20° C.-24° C. and the humidity was maintained at 30%-70%. The light cycle in the animal feeding room was 12 hours (starting at 7:00 am and ending at 7:00 pm). During the experiment, animals were kept in single cages and toys were provided in each cage. During the experiment, animals were free to consume food (growth/reproduction feed for mice and rats) and water.
Body weight without fasting and initial food weight before administration were recorded, and the animals were administered with a single subcutaneous injection, and the daily body weight and food intake weight were recorded for 3 days after administration. The activity, water intake, diet, and body weight changes of animals were observed every day. The changes in body weight and food intake weight were calculated compared to the baseline levels of each group (the initial body weight and food intake weight before administration), with body weight changes expressed as percentages (baseline was 100%).

Bounds are passed on as bounds.

In the case of “PKPEK(AEEAc-γGlu-CO(CH2)16COOH)PE-Aib-DASPEEWQRYY-Aib-ELRHYLNWLTRQRY-NH2 [Analogue 3]”, the values for the concentration for a half-maximal effect (EC50) in data set [1], in data set [2] and in data set [5] were 92.7 nM, 0.037 nM and > 50 nM, respectively. For the same substance, the results for the AUCinf in data set [3] and in data set [4] were 336.537 µg·h/mL and 79.609 µg·h/mL, respectively. The Cmax (in general, the highest concentration seen after dosing) is given as 1775 ng/mL in data set [3] and 1941 ng/mL in data set [4]. Also, the T1/2 in data set [3] stood at 125.5 h; in data set [4], 24.7 h. In addition, the Tmax (usually the time from dosing to the highest level) is reported as 12 h in data set [3] and 13.3 h in data set [4]. The “Accumulated food intake weight” value in data set [6] (3 nmol/kg single s.c.) is 9.73 ± 0.48 g; in data set [6] (10 nmol/kg single s.c.), 8.24 ± 0.27 g; in data set [6] (30 nmol/kg single s.c.), 6.24 ± 0.26 g. Further, the figures for the Body weight changes in data set [6] (3 nmol/kg single s.c.), in data set [6] (10 nmol/kg single s.c.) and in data set [6] (30 nmol/kg single s.c.) were −1.04% ± 2.02%, −0.69% ± 1.64% and −6.52% ± 1.37%, respectively.

Regarding “PKPEK(AEEAc-γGlu-CO(CH2)16COOH)PEED-Aib-SPEEWQRYY-Aib-SLRHYLNWLTRQRY-NH2 [Analogue 1]”, the EC50 (commonly the concentration giving half of the maximal effect) was 0.041 nM in data set [2] and > 50 nM in data set [5]. The results for the “Accumulated food intake weight” value in data set [6] (3 nmol/kg single s.c.), in data set [6] (10 nmol/kg single s.c.) and in data set [6] (30 nmol/kg single s.c.) were 11.54 ± 0.40 g, 9.29 ± 0.27 g and 8.10 ± 0.26 g, respectively. Moreover, the Body weight changes in data set [6] (3 nmol/kg single s.c.) is recorded as 2.32% ± 2.53%; in data set [6] (10 nmol/kg single s.c.), 1.23% ± 2.92%; in data set [6] (30 nmol/kg single s.c.), 0.51% ± 2.56%.
